Experimental data from patent publication US10961202B2, “Bis-benzimidazole compounds and methods of using the same” (THE SCRIPPS RESEARCH INSTITUTE, priority 2017, dated 2021).

Key:
r(CUG)12-MBNL1 complex = assay: Inhibition of the r(CUG)12-MBNL1 complex measured by TR-FRET; format: biochemical; settings: 80 nM RNA, 60 nM MBNL1-His6
[1] = tested on: MBNL1 exon 5 inclusion in DM1 myotubes; assay: Myotube splicing rescue assay (MBNL1 exon 5 inclusion); format: cell-based, human; settings: 48-hour incubation

Compound | IC50 (r(CUG)12-MBNL1 complex; Table M) [µM] | IC50 (r(CUG)12-MBNL1 complex; Table L) [µM] | MBNL1 % splicing rescue at 10 μM [1] [%] | MBNL1 % splicing rescue at 1 μM [1] [%] | MBNL1 % splicing rescue at 5 μM ([1]; 5 μM) [%]
CN(C)CCSc1ccc2nc(-c3ccc(-c4nc5ccc(SCCN(C)C)cc5[nH]4)cc3)[nH]c2c1 [Compound 59, 2,2′-((2,2′-(1,4-phenylene)bis(1H-benzo[d]imidazole-6,2-diyl))bis(sulfanediyl))bis(N,N-dimethylethanamine)] |  | 10.8 | −17.6 |  | 
CN(C)CCCOc1ccc2nc(-c3ccc(-c4nc5ccc(NC6=NCCN6C6=NCCN6)cc5[nH]4)cc3)[nH]c2c1 [Compound 171] | 9.66 |  | 7.8 | 11.5 | 
CCN(CC)CCNC(=O)c1ccc(-c2nc3cc(-c4ccc5[nH]c(-c6ccc(C(=O)NCCN(CC)CC)cc6)nc5c4)ccc3[nH]2)cc1 [Compound 112] |  | 5 | 66.5 |  | 
C[N+](C)(C)CCOC(=O)c1ccc2nc(-c3ccc(-c4nc5ccc(C(=O)OCC[N+](C)(C)C)cc5[nH]4)cc3)[nH]c2c1 [Compound 55, 2,2′-((2,2′-(1,4-phenylene)bis(1H-benzo[d]imidazole-6,6′-carbonyl))bis(oxy))bis(N,N,N-trimethylethanaminium) chloride] |  | 4.2 | 12.0 |  | 
CN(C)CCCOc1ccc2nc(-c3ccc(-c4nc5ccc(OCCCN(C)C)cc5[nH]4)c(O)c3)[nH]c2c1 [Compound 256, 2,5-bis(6-(3-(dimethylamino)propoxy)-1H-benzo[d]imidazol-2-yl)phenol] | 10.7 |  | 90.6 |  | 
O=C(NCCN1CCC(O)CC1)c1ccc2[nH]c(-c3ccc(-c4nc5ccc(C(=O)NCCN6CCC(O)CC6)cc5[nH]4)cc3)nc2c1 [Compound 146] |  | 15.8 | 7.1 | 0.8 | 

The next lines start with results.

IC50 (r(CUG)12-MBNL1 complex; Table M) [µM] | Compound | IC50 (r(CUG)12-MBNL1 complex; Table L) [µM] | MBNL1 % splicing rescue at 10 μM [1] [%] | MBNL1 % splicing rescue at 1 μM [1] [%] | MBNL1 % splicing rescue at 5 μM ([1]; 5 μM) [%]
19.2 | CN1CCCCC1COc1ccc(-c2nc3cc(-c4ccc5[nH]c(-c6ccc(O)cc6)nc5c4)ccc3[nH]2)cc1 (centres unmarked) [Compound 358] |  | 74.6 | 12.4 | 
6.1 | CN1CCC(COc2ccc3nc(-c4ccc(-c5nc6ccc(OCC7CCN(C)CC7)cc6[nH]5)c(F)c4)[nH]c3c2)CC1 [Compound 315] |  | 88.4 |  | 
9.7 | CN(C)CCCOc1ccc2nc(-c3ccc(-c4nc5ccc(OCCCN(C)C)cc5[nH]4)nc3)[nH]c2c1 [Compound 276, 3,3′-(2,2′-(pyridine-2,5-diyl)bis(3H-benzo[d]imidazole-5,2-diyl))bis(oxy)bis(N,N-dimethylpropan-1-amine)] |  | 63.1 |  | 
10.9 | CC(=O)NCCCn1cc(CCCCN(C)CCNC(=O)c2ccc(-c3nc4cc(-c5ccc6[nH]c(-c7ccc(C(=O)NCCN(C)C)cc7)nc6c5)ccc4[nH]3)cc2)nn1 [Compound 402] |  |  |  | −33.8
28 | COc1cc(-c2nc3ccc(SCCCN(C)C)cc3[nH]2)c(OC)cc1-c1nc2cc(SCCCN(C)C)ccc2[nH]1 [Compound 302, 3-((2-(4-(6-((3-(dimethylamino)propyl)thio)-1H-benzo[d]imidazol-2-yl)-2,5-dimethoxyphenyl)-1H-benzo[d]imidazol-5-yl)thio)-N,N-dimethylpropan-1-amine] |  | 32.3 |  | 
5.81 | CN(C)CCOC(=O)c1ccc2nc(-c3ccc(-c4nc5ccc(C(=O)OCCN(C)C)cc5[nH]4)c(F)c3)[nH]c2c1 [Compound 270, bis(2-(dimethylamino)ethyl) 2,2′-(2-fluoro-1,4-phenylene)bis(1H-benzo[d]imidazole-6-carboxylate)] |  | −19.5 |  | 
6.1 | CN(C)CCCOc1c(F)cc2nc(-c3ccc(-c4nc5cc(F)c(OCCCN(C)C)c(F)c5[nH]4)cc3)[nH]c2c1F [Compound 273] |  | −15.3 |  | 
